According to patent US20230158025A1 (UNIVERSITY OF UTAH RESEARCH FOUNDATION, priority 2020, published 2023):
Read-outs that look alike come from different tables or passages of the source.

Tests used:
recombinant mouse GALK1 = recombinant mouse GALK1 (Mus musculus, UniProt Q9R0N0); assay: mGALK1 biochemical activity assay (Kinase-Glo Plus, ATP depletion)
Summary of the method: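 Recombinant GALK1 (5 nM) with 100 μM galactose; GALK1 turnover read as ATP depletion by Kinase-Glo Plus luminescence. Reaction ran 1 h at room temperature before detection reagent was added.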

[1] = aqueous kinetic solubility; details: aqueous kinetic solubility
recombinant human GALK1 = recombinant human GALK1 (Homo sapiens, UniProt P51570); assay: hGALK1 biochemical activity assay (Kinase-Glo Plus, ATP depletion)
Summary of the method: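 Turnover is measured as ATP depletion by Kinase-Glo Plus luminescence after a 1 h room-temperature reaction. Compounds span 11 concentrations, 57.4 μM–0.97 nM, in final 20 mM HEPES pH 8.0 with 5 mM MgCl2. The substrate solution held 35 μM ATP; the added solution held 5 nM human or mouse GALK1 and 100 μM galactose.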

PAMPA permeability = details: PAMPA; for Papp: Perm. (1 × 10^−6 cm/sec)
[2] = rat microsomal stability (RLM); details: microsomal stability half-life
[3] = Tables 2-15, 35 μM ATP, 100 μM galactose, 1 h, bracketed figure after some values is undefined and not reported, read-out: mGALK IC50
[4] = recombinant mouse GALK1, Kinase-Glo Plus ATP depletion, read-out: mGALK
[5] = Tables 2-15, 35 μM ATP, 100 μM galactose, 1 h, bracketed figure after some values (e.g. −1.2) is undefined and not reported, read-out: hGALK IC50
[6] = recombinant human GALK1, Kinase-Glo Plus ATP depletion, read-out: hGALK

Sequence of recombinant mouse GALK1 (Q9R0N0 whole entry): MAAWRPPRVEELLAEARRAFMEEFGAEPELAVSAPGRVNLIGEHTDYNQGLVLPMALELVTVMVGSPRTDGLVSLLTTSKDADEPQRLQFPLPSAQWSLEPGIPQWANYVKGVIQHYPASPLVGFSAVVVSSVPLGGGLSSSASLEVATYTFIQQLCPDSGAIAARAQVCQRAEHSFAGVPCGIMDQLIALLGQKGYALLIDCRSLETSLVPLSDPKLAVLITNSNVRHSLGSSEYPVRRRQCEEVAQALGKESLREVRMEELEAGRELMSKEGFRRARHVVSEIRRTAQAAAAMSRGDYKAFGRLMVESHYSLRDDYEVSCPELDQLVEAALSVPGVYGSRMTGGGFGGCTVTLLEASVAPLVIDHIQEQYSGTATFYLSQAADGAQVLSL
Sequence of recombinant human GALK1 (P51570 whole entry): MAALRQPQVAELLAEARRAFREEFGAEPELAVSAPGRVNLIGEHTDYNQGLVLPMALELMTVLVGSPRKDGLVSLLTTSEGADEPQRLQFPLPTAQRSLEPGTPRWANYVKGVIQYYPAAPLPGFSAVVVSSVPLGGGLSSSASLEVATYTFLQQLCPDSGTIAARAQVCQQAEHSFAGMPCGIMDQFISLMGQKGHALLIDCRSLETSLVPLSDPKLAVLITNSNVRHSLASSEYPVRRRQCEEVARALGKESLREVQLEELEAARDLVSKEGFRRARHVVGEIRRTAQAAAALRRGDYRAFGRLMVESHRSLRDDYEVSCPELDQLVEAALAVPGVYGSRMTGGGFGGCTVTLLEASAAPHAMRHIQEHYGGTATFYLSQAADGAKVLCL

| SMILES | IC50 (recombinant mouse GALK1; [3]) | IC50 (recombinant mouse GALK1; [4]) | Sol. [1] | IC50 (recombinant human GALK1; [5]) | IC50 (recombinant human GALK1; [6]) | Perm. (1 × 10^−6 cm/sec) (PAMPA permeability) | Metab. Stabil. (m) [2] | Papp (PAMPA permeability) |
| --- | --- | --- | --- | --- | --- | --- | --- | --- |
| CC1=C(C(=O)Nc2nnc(C(F)(F)F)s2)C(c2ccccc2Cl)N=C(Nc2nc3ccccc3o2)N1 (stereo not shown) [Compound 167, 2-(benzo[d]oxazol-2-ylamino)-4-(2-chlorophenyl)-6-methyl-N-(5-(trifluoromethyl)-1,3,4-thiadiazol-2-yl)-1,4-dihydropyrimidine-5-carboxamide] | 21.7 µM | 21.7 µM | <1 µg/mL | 12.2 µM | 12.2 µM | 12.6 1 × 10^−6 cm/sec | >30 m | – |
| CCOC(=O)c1nnc(NC(=O)C2=C(C)NC(Nc3nc4ccccc4o3)=NC2c2ccccc2Cl)s1 (stereo not shown) [Compound 168, ethyl 5-(2-(benzo[d]oxazol-2-ylamino)-4-(2-chlorophenyl)-6-methyl-1,4-dihydropyrimidine-5-carboxamido)-1,3,4-thiadiazole-2-carboxylate] | 10.9 µM | – | <1 µg/mL | 4.85 µM | 4.85 µM | <2.7 1 × 10^−6 cm/sec | 3.158 m | – |
| COC(=O)Cc1ccc(NC(=O)C2=C(C)NC(Nc3nc4ccccc4o3)=NC2c2ccccc2Cl)cc1 (stereo not shown) [Compound 170, methyl 2-(4-(2-(benzo[d]oxazol-2-ylamino)-4-(2-chlorophenyl)-6-methyl-1,4-dihydropyrimidine-5-carboxamido)phenyl)acetate] | 12.2 µM | 12.2 µM | <1 µg/mL | 5.44 µM | 5.44 µM | 195.0 1 × 10^−6 cm/sec | 7.464 m | – |
| CC1=C(C(=O)Nc2cccc(CN)c2)C(c2ccccc2Cl)N=C(Nc2nc3ccccc3o2)N1 (stereo not shown) [Compound 171, N-(3-(aminomethyl)phenyl)-2-(benzo[d]oxazol-2-ylamino)-4-(2-chlorophenyl)-6-methyl-1,4-dihydropyrimidine-5-carboxamide] | 6.85 µM | 6.85 µM | 37.5 µg/mL | 10.9 µM | 10.9 µM | 32.7 1 × 10^−6 cm/sec | >30 m | – |
| CC1=C(C(=O)Nc2cccc(-c3nnn[nH]3)c2)C(c2ccccc2Cl)N=C(Nc2nc3ccccc3o2)N1 (stereo not shown) [Compound 175, N-(3-(1H-tetrahydro-5-yl)phenyl)-2-(benzo[d]oxazol-2-ylamino)-4-(2-chlorophenyl)-6-methyl-1,4-dihydropyrimidine-5-carboxamide] | 34.3 µM | 34.3 µM | 47.5 µg/mL | 19.3 µM | 19.3 µM | 5.0 1 × 10^−6 cm/sec | >30 m | – |
| COC(=O)Cc1cccc(NC(=O)C2=C(C)NC(Nc3nc4ccccc4o3)=NC2c2ccccc2Cl)c1 (stereo not shown) [Compound 176, methyl 2-(3-(2-(benzo[d]oxazol-2-ylamino)-4-(2-chlorophenyl)-6-methyl-1,4-dihydropyrimidine-5-carboxamido)phenyl)acetate] | 13.7 µM | 13.7 µM | <1 µg/mL | 10.9 µM | 10.9 µM | <17.4 1 × 10^−6 cm/sec | 10.34 m | – |
| CC1=C(C(=O)Nc2cccc(-c3cn[nH]c3)c2)C(c2ccccc2Cl)N=C(Nc2nc3ccccc3o2)N1 (stereo not shown) [Compound 178, N-(3-(1H-pyrazol-4-yl)phenyl)-2-(benzo[d]oxazol-2-ylamino)-4-(2-chlorophenyl)-6-methyl-1,4-dihydropyrimidine-5-carboxamide] | 38.5 µM | 38.5 µM | <1 µg/mL | 17.2 µM | 17.2 µM | <25.4 1 × 10^−6 cm/sec | >30 m | – |
| CC1=C(C(=O)Nc2nnc(-c3cccnc3)s2)C(c2ccccc2Cl)N=C(Nc2nc3ccccc3o2)N1 (stereo not shown) [Compound 180, 2-(benzo[d]oxazol-2-ylamino)-4-(2-chlorophenyl)-6-methyl-N-(5-(pyridin-3-yl)-1,3,4-thiadiazol-2-yl)-1,4-dihydropyrimidine-5-carboxamide] | 9.68 µM | 9.68 µM | <1 µg/mL | 3.06 µM | 3.06 µM | <3.7 1 × 10^−6 cm/sec | >30 m | – |
| CC1=C(C(=O)Nc2ccc(C(N)=O)cc2)C(c2ccccc2Cl)N=C(Nc2nc3ccccc3o2)N1 (stereo not shown) [Compound 181, 2-(benzo[d]oxazol-2-ylamino)-N-(4-carbamoylphenyl)-4-(2-chlorophenyl)-6-methyl-1,4-dihydropyrimidine-5-carboxamide] | 6.85 µM | 6.85 µM | <1 µg/mL | 4.32 µM | 4.32 µM | <6.3 1 × 10^−6 cm/sec | >30 m | – |
| CC1=C(C(=O)Nc2ccc(CN3CCOCC3)cc2)C(c2ccccc2Cl)N=C(Nc2nc3ccccc3o2)N1 (stereo not shown) [Compound 183, 2-(benzo[d]oxazol-2-ylamino)-4-(2-chlorophenyl)-6-methyl-N-(4-(morpholinomethyl)phenyl)-1,4-dihydropyrimidine-5-carboxamide] | 9.68 µM | 9.68 µM | <1 µg/mL | 5.44 µM | 5.44 µM | 120.4 1 × 10^−6 cm/sec | 22.3 m | – |
| CC1=C(C(=O)Nc2ccc(-n3cccn3)cc2)C(c2ccccc2Cl)N=C(Nc2nc3ccccc3o2)N1 (stereo not shown) [Compound 184, N-(4-(1H-pyrazol-1-yl)phenyl)-2-(benzo[d]oxazol-2-ylamino)-4-(2-chlorophenyl)-6-methyl-1,4-dihydropyrimidine-5-carboxamide] | 12.2 µM | 12.2 µM | <1 µg/mL | 6.11 µM | 6.11 µM | <11.8 1 × 10^−6 cm/sec | 16.4271 m | – |
| COC(=O)c1cnc(NC(=O)C2=C(C)NC(Nc3nc4ccccc4o3)=NC2c2ccccc2Cl)s1 (stereo not shown) [Compound 185, methyl 2-(2-(benzo[d]oxazol-2-ylamino)-4-(2-chlorophenyl)-6-methyl-1,4-dihydropyrimidine-5-carboxamido)thiazole-5-carboxylate] | 10.9 µM | 10.9 µM | <1 µg/mL | 4.32 µM | 4.32 µM | – | 15.91 m | < 7.6 ×10⁻⁶ cm/s |
| COC(=O)c1csc(NC(=O)C2=C(C)NC(Nc3nc4ccccc4o3)=NC2c2ccccc2Cl)n1 (stereo not shown) [Compound 186, methyl 2-(2-(benzo[d]oxazol-2-ylamino)-4-(2-chlorophenyl)-6-methyl-1,4-dihydropyrimidine-5-carboxamido)thiazole-4-carboxylate] | 13.7 µM | 13.7 µM | <1 µg/mL | 12.2 µM | 12.2 µM | 65.6 1 × 10^−6 cm/sec | >30 m | – |
| CC1=C(C(=O)Nc2nnc(-c3ccncc3)s2)C(c2ccccc2Cl)N=C(Nc2nc3ccccc3o2)N1 (stereo not shown) [Compound 187, 2-(benzo[d]oxazol-2-ylamino)-4-(2-chlorophenyl)-6-methyl-N-(5-(pyridin-4-yl)-1,3,4-thiadiazol-2-yl)-1,4-dihydropyrimidine-5-carboxamide] | 19.3 µM | 19.3 µM | <1 µg/mL | 10.9 µM | 10.9 µM | 6.2 1 × 10^−6 cm/sec | >30 m | – |
| CC1=C(C(=O)Nc2ccc(C#N)cc2)C(c2ccccc2Cl)N=C(Nc2nc3ccccc3o2)N1 (stereo not shown) [Compound 189, 2-(benzo[d]oxazol-2-ylamino)-4-(2-chlorophenyl)-N-(4-cyanophenyl)-6-methyl-1,4-dihydropyrimidine-5-carboxamide] | 13.7 µM | 13.7 µM | <1 µg/mL | 10.9 µM | 10.9 µM | <18.7 1 × 10^−6 cm/sec | 25.33 m | – |
| CC1=C(C(=O)Nc2ccc(N3CCNCC3)cc2)C(c2ccccc2Cl)N=C(Nc2nc3ccccc3o2)N1 (stereo not shown) [Compound 190, 2-(benzo[d]oxazol-2-ylamino)-4-(2-chlorophenyl)-6-methyl-N-(4-(piperazin-1-yl)phenyl)-1,4-dihydropyrimidine-5-carboxamide] | 48.5 µM | 48.5 µM | 2.416 µg/mL | 68.5 µM | 68.5 µM | – | 8.634 m | 894 ×10⁻⁶ cm/s |
| CC1=C(C(=O)Nc2ncc(CO)s2)C(c2ccccc2Cl)N=C(Nc2nc3ccccc3o2)N1 (stereo not shown) [Compound 193, 2-(benzo[d]oxazol-2-ylamino)-4-(2-chlorophenyl)-N-(5-(hydroxymethyl)thiazol-2-yl)-6-methyl-1,4-dihydropyrimidine-5-carboxamide] | 19.3 µM | 19.3 µM | <1 µg/mL | 12.2 µM | 12.2 µM | 161.4 1 × 10^−6 cm/sec | >30 m | – |
